According to ChEMBL document CHEMBL5390316, “Enniatin A Analogues as Novel Hsp90 Inhibitors that Modulate Triple-Negative Breast Cancer” (ACS Med Chem Lett, 2023):
Each block holds one compound with its values, some of them ahead of it. Active and inactive are the calls of the source. No cut-off for these calls is given here.

How the values were obtained:
Hs-578T [1] = assay: Antiproliferative activity against human Hs-578T cells assessed as reduction in cell viability incubated for 48 hrs by MTT assay; format: functional, cell-based
[2] = molecular target: Heat shock protein HSP90 (Homo sapiens) (UniProt P07900+P08238); assay: Inhibition of HSP90 in human Hs-578T cells assessed as degradation of CDK4 at 5 uM incubated for 24 hrs by Western blot analysis; format: cell-based
Hs-578T [3] = assay: Induction of heat shock response in human Hs-578T cells assessed as change in Hsp40 level at 5 uM incubated for 24 hrs by Western blot analysis; format: functional, cell-based
Hs-578T [4] = assay: Induction of heat shock response in human Hs-578T cells assessed as change in Hsp70 level at 5 uM incubated for 24 hrs by Western blot analysis; format: functional, cell-based
E0771 [5] = assay: In vivo inhibition of HSP90 in mouse E0771 cells implanted in C57BL/6 mouse assessed as change in p-Akt/Akt ratio at 10 mg/kg, ip administered every 48 hrs for 3 weeks by Western blot analysis; format: functional, organism-based
4T1 [6] = assay: Inhibition of HSP90 in mouse 4T1 cells assessed as reduction in CDK4 level at 7.5 uM incubated for 24 hrs by Western blot analysis; format: cell-based
EO771 [7] = assay: Inhibition of HSP90 in mouse EO771 cells assessed as change in CDK4 level at 7.5 uM incubated for 24 hrs by Western blot analysis; format: cell-based
EO771 [8] = assay: Inhibition of HSP90 in mouse EO771 cells assessed as change in ILK level at 7.5 uM incubated for 24 hrs by Western blot analysis; format: cell-based
EO771 [9] = assay: Induction of heat shock response in mouse EO771 cells assessed as change in Hsp70 level at 7.5 uM incubated for 24 hrs by Western blot analysis; format: functional, cell-based
4T1 [10] = assay: Inhibition of HSP90 in mouse 4T1 cells assessed as reduction in ILK level at 7.5 uM incubated for 24 hrs by Western blot analysis; format: cell-based
4T1 [11] = assay: Induction of heat shock response in mouse 4T1 cells assessed as change in Hsp70 level at 7.5 uM incubated for 24 hrs by Western blot analysis; format: functional, cell-based
EO771 [12] = assay: Antiproliferative activity against mouse E0771 cells implanted in C57BL/6 mouse assessed as inhibition of tumor volume at 10 mg/kg, ip administered every 48 hrs for 3 weeks; format: functional, organism-based
E0771 [13] = assay: In vivo inhibition of HSP90 in mouse E0771 cells implanted in C57BL/6 mouse assessed as change in CDK4 at 10 mg/kg, ip administered every 48 hrs for 3 weeks by Western blot analysis; format: functional, organism-based
E0771 [14] = assay: In vivo inhibition of HSP90 in mouse E0771 cells implanted in C57BL/6 mouse assessed as change in ILK at 10 mg/kg, ip administered every 48 hrs for 3 weeks by Western blot analysis; format: functional, organism-based
E0771 [15] = assay: In vivo inhibition of HSP90 in mouse E0771 cells implanted in C57BL/6 mouse at 10 mg/kg, ip administered every 48 hrs for 3 weeks by Western blot analysis; format: functional, organism-based
E0771 [16] = assay: In vivo induction of heat shock response in mouse E0771 cells implanted in C57BL/6 mouse assessed as increased Hsp40 level at 10 mg/kg, ip administered every 48 hrs for 3 weeks by Western blot analysis; format: functional, organism-based
E0771 [17] = assay: In vivo induction of heat shock response in mouse E0771 cells implanted in C57BL/6 mouse assessed as increased Hsp70 level at 10 mg/kg, ip administered every 48 hrs for 3 weeks by Western blot analysis; format: functional, organism-based
Hs-578T [18] = assay: Induction of heat shock response in human Hs-578T cells assessed as reduction in Hsp40 level at 1 uM incubated for 24 hrs by Western blot analysis; format: functional, cell-based
Hs-578T [19] = assay: Induction of heat shock response in human Hs-578T cells assessed as reduction in Hsp70 level at 1 uM incubated for 24 hrs by Western blot analysis; format: functional, cell-based

SMILES: CC[C@H](C)[C@H]1C(=O)O[C@H](C(C)C)C(=O)N(C)[C@@H]([C@@H](C)CC)C(=O)O[C@H](C(C)C)C(=O)N(C)[C@@H]([C@@H](C)CC)C(=O)O[C@H](Cc2ccc(C)cc2)C(=O)N1C
IC50 (Hs-578T [1]): 8.34 µM

SMILES: CC[C@H](C)[C@H]1C(=O)O[C@H](C(C)C)C(=O)N(C)[C@@H]([C@@H](C)CC)C(=O)O[C@H](C(C)C)C(=O)N(C)CC(=O)O[C@H](C(C)C)C(=O)N1C
IC50 (Hs-578T [1]): 16.7 µM

SMILES: CC[C@H](C)[C@H]1C(=O)O[C@H](C(C)C)C(=O)N(C)[C@@H]([C@@H](C)CC)C(=O)O[C@H](C(C)C)C(=O)N(C)[C@@H]([C@@H](C)CC)C(=O)O[C@H](C)C(=O)N1C
IC50 (Hs-578T [1]): 13 µM

inhibition [2]: Active
SMILES: CC[C@H](C)[C@H]1C(=O)O[C@H](C(C)C)C(=O)N(C)[C@@H](Cc2ccccc2)C(=O)O[C@H](C(C)C)C(=O)N(C)[C@@H]([C@@H](C)CC)C(=O)O[C@H](C(C)C)C(=O)N1C
IC50 (Hs-578T [1]): 8 µM | Activity (Hs-578T [3]): inactive | Activity (Hs-578T [4]): inactive

SMILES: CC[C@H](C)[C@H]1C(=O)O[C@H](C(C)C)C(=O)N(C)[C@@H]([C@@H](C)CC)C(=O)O[C@H](C(C)C)C(=O)N(C)[C@@H]([C@@H](C)CC)C(=O)O[C@H](C(C)C)C(=O)N1C
inhibition (E0771 [5]): Active | inhibition (4T1 [6]): Active | IC50 (Hs-578T [1]): 7.39 µM | inhibition [2]: Active | Activity (Hs-578T [3]): inactive | Activity (Hs-578T [4]): inactive | inhibition (EO771 [7]): inactive | inhibition (EO771 [8]): inactive | Activity (EO771 [9]): inactive | inhibition (4T1 [10]): Active | Activity (4T1 [11]): inactive | Activity (EO771 [12]): Active | inhibition (E0771 [13]): Active | inhibition (E0771 [14]): Active | inhibition (E0771 [15]): inactive

inhibition [2]: Active
SMILES: CC[C@H](C)[C@H]1C(=O)O[C@H](C(C)C)C(=O)N(C)[C@@H]([C@@H](C)CC)C(=O)O[C@H](C(C)C)C(=O)N(C)[C@@H]([C@@H](C)CC)C(=O)O[C@H](Cc2ccccc2)C(=O)N1C
inhibition (E0771 [5]): Active | inhibition (4T1 [6]): Active | IC50 (Hs-578T [1]): 4.36 µM | Activity (Hs-578T [3]): inactive | Activity (Hs-578T [4]): inactive | inhibition (EO771 [7]): inactive | inhibition (EO771 [8]): inactive | Activity (EO771 [9]): inactive | inhibition (4T1 [10]): Active | Activity (4T1 [11]): inactive | Activity (EO771 [12]): Active | inhibition (E0771 [13]): Active | inhibition (E0771 [14]): Active | Activity (E0771 [16]): Active | Activity (E0771 [17]): Active | inhibition (E0771 [15]): inactive

SMILES: CC[C@H](C)[C@H]1C(=O)O[C@H](C(C)C)C(=O)N(C)[C@@H]([C@@H](C)CC)C(=O)O[C@H](C(C)C)C(=O)N(C)[C@@H]([C@@H](C)CC)C(=O)O[C@H](CCc2ccccc2)C(=O)N1C
IC50 (Hs-578T [1]): 8.1 µM

SMILES: C=CCNC1=C2C[C@@H](C)C[C@H](OC)[C@H](O)[C@@H](C)/C=C(\C)[C@H](OC(N)=O)[C@@H](OC)/C=C\C=C(/C)C(=O)NC(=CC1=O)C2=O
Activity (Hs-578T [18]): Active | Activity (Hs-578T [19]): Active

SMILES: CC[C@H](C)[C@H]1C(=O)O[C@H](C(C)C)C(=O)N(C)[C@@H]([C@@H](C)CC)C(=O)O[C@H](C(C)C)C(=O)N(C)[C@@H]([C@@H](C)CC)C(=O)O[C@H](Cc2ccc3ccccc3c2)C(=O)N1C
IC50 (Hs-578T [1]): 8 µM

SMILES: CC[C@H](C)[C@H]1C(=O)O[C@H](C(C)C)C(=O)N(C)[C@@H](C)C(=O)O[C@H](C(C)C)C(=O)N(C)[C@@H]([C@@H](C)CC)C(=O)O[C@H](C(C)C)C(=O)N1C
IC50 (Hs-578T [1]): 16.2 µM

SMILES: CC[C@H](C)[C@H]1C(=O)O[C@H](C(C)C)C(=O)N(C)[C@@H]([C@@H](C)CC)C(=O)O[C@H](C(C)C)C(=O)N(C)[C@@H]([C@@H](C)CC)C(=O)OCC(=O)N1C
IC50 (Hs-578T [1]): 16 µM
